Results: patent publication US8586603B2, “Aminotetraline derivatives” (priority 2009, dated 2013)
“And” between values parts separate entries of the source, which are not always exact repeats. Identical values can stand only once.

How the values were obtained:
[1] = target: T1, porcine striatal pD1 dopamine receptor (Sus scrofa, UniProt P50130); assay: Receptor binding assay, [3H]SCH 23390 competition, porcine striatal membranes
T1 construct: membrane homogenates prepared from porcine striatal or cortical tissue; from tissue; host or cells: porcine striatum
T1 sequence (P50130 whole entry): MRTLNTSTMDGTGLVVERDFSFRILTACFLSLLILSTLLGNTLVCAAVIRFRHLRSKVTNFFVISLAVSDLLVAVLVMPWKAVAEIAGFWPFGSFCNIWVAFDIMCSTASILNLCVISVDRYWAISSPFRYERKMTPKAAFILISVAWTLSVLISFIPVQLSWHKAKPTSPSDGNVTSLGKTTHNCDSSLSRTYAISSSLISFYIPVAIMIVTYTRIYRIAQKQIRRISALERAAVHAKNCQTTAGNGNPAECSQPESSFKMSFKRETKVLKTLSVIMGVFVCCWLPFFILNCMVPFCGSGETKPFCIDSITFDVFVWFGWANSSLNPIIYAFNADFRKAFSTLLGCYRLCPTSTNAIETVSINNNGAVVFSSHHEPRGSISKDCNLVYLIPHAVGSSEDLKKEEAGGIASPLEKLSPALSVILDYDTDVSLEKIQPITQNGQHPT

[2] = Saturated solution in phosphate buffer pH 6.2; type: physicochemical
Method: (§1) For the permeation experiments horizontal cells with an acceptor and donor volume of approx. 23 mL of phosphate buffer pH 6.2 were used. The donor cells contained saturated solutions of compound 1 (2 mg/mL) in phosphate buffer pH 6.2. The experiments were performed at a temperature of 32° C. and the acceptor and donor media were slowly stirred. For the study pig leg skin with thickness of 300-500 μm were used. The experiments were performed in triplicate (n=3) over a period of 48 hours. During this time period six samples at different time points (after 2, 4, 6, 8, 24 and 48 hours) were taken. After each individual incubation period the concentration of the test compound in the acceptor medium was analysed by HPLC at 275 nm, 20° C., flow rate 2.0 mL/min in acetonitrile/water/TFA.

[3] = Pig skin permeation from saturated solution; type: in vitro ADME; settings: pig leg skin 300-500 μm, phosphate buffer pH 6.2, 32° C., 48 hours, mean of cells 1-3
Method: The in vitro permeation of compound 1 through pig skin from saturated solution (f1) and from a patch (f2) was investigated.
as §1
Evaluation: The concentration of the test compound in the acceptor medium was calculated by using an external standard solution with known concentration. Then the concentration of test compound was correlated with the incubation time by linear regression. The flux rate [μg/cm^2/h] is equivalent to the slope of the linear equation.

[4] = tested on: porcine cortical pα1 adrenergic receptor; assay: Receptor binding assay, [3H]prazosin competition, porcine cortical membranes; settings: vs p5-HT1a
[5] = target: T2, porcine cortical pα1 adrenergic receptor; assay: as above; settings: means of 2-8 individual experiments each done as triplicate
T2 construct: Ki pα1; other: means of 2-8 individual experiments each done as triplicate

[6] = target: T3, human dopamine receptor subtype hD2long (Homo sapiens, UniProt P14416); assay: Receptor binding assay, [3H]spiperone competition, CHO cell membranes
T3 construct: expressed in transfected cells; host or cells: CHO
T3 sequence (P14416 whole entry): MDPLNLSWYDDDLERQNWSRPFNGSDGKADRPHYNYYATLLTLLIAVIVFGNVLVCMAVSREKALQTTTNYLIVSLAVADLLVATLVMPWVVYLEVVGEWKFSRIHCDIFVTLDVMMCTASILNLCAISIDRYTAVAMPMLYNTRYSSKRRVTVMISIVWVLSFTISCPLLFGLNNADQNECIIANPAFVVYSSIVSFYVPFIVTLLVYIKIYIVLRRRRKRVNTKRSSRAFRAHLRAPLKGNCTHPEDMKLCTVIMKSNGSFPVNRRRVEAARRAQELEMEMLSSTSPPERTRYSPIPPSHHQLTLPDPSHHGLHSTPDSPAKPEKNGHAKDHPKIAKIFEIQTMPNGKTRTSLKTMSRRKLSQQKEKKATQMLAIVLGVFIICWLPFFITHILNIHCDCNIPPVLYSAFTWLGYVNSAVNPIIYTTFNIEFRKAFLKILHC
Method: (§2) Receptor binding data were determined when performing competition binding assays with membrane preparations of cloned cells (stably transfected Chinese Hamster Ovary cells (CHO)) expressing the human receptors and the following radioligands: [^3H]spiperone at the human dopamine receptor subtypes hD2long, hD2short, D3, and hD4.4.
(§3) Selectivity ratios were calculated by division of the Ki values of the various compounds at the respective receptors through the Ki values at the 5HT1a receptor.

[7] = target: T4, human dopamine receptor subtype hD2short (Homo sapiens, UniProt P14416); assay: as above
T4 construct: expressed in transfected cells; host or cells: CHO
T4 sequence (P14416 1-414 isoform P14416-2): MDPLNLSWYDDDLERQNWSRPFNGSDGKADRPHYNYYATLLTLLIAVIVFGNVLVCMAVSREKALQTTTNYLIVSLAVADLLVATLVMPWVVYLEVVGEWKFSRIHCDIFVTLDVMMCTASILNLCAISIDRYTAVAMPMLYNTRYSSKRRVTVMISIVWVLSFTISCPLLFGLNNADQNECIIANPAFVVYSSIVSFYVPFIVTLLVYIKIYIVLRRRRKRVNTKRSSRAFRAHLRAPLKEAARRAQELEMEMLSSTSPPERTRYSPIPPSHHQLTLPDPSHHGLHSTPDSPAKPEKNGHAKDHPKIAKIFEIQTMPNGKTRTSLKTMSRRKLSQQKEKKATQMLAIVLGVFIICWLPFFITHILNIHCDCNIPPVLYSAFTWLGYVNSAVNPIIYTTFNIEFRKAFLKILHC
Method: as §2, §3

[8] = target: T5, human dopamine receptor subtype hD3 (Homo sapiens, UniProt P35462); assay: as above
T5 construct: expressed in transfected cells; host or cells: CHO
T5 sequence (P35462 whole entry): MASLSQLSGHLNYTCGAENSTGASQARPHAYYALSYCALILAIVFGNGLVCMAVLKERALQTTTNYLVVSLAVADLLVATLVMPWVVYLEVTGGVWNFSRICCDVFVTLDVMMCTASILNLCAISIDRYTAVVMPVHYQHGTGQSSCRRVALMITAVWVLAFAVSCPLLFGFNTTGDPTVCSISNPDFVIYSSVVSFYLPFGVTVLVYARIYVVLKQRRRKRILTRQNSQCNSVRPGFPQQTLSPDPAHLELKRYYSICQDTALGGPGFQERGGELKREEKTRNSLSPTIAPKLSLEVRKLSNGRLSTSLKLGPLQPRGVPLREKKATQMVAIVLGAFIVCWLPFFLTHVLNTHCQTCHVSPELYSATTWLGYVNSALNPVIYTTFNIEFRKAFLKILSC
Method: as §2, §3

human 5-HT1a receptor = target: T6, human 5-HT1a receptor (Homo sapiens, UniProt P08908); assay: [35S]GTPγS functional assay; type: biochemical
T6 construct: expressed in transfected cells
T6 sequence (P08908 1-422): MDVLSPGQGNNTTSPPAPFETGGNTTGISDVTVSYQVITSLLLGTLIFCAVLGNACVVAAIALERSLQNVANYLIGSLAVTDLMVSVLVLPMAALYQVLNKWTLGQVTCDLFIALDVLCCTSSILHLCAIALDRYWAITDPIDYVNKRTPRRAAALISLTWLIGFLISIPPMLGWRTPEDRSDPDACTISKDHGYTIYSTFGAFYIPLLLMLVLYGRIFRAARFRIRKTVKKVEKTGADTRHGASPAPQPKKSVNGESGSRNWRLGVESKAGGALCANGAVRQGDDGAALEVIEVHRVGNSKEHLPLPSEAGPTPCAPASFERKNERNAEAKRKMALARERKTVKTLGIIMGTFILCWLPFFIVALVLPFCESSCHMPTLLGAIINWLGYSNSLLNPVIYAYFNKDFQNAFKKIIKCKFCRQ
Method: Specific binding of [^35S]GTPγS is stimulated by activation of the stably expressed human 5-HT1a receptor in a dose-dependent way by agonists for this GPCR and is determined by measuring the radioactive label of the membrane. Non-linear regression analysis of the resulting dose-response curves yields the EC50 value in [nM] representing the half maximal concentration which is necessary to activate the receptor completely.

[9] = target: porcine cortical pα2 adrenergic receptor; assay: Receptor binding assay, [3H]RX821002 competition, porcine cortical membranes; settings: means of 2-8 individual experiments each done as triplicate
[10] = means of 2-8 individual experiments each done as triplicate

## CCCN(CCc1cccs1)C1CCc2cccc(O)c2C1 (stereo not shown) [Compound 1, N-(8-Hydroxytetralin-2-yl)-N-propyl-N-[2-(2-thienyl)ethyl]amine]
[1]; [10]
  Ki: 9.4 µM
[1]; vs p5-HT1a
  selectivity ratio pD1: 13 000
[2]
  concentration of saturated solution: 2000 µg/mL
[3]
  average flux rate from saturated solution: 4.0 μg/cm^2/h
[4]
  selectivity ratio pα1: 230
[5]
  Ki: 0.17 µM
[6]; [10]
  Ki: 0.26 µM
[6]; vs p5-HT1a
  selectivity ratio hD2long: 360
[7]; [10]
  Ki: 0.26 µM
[7]; vs p5-HT1a
  selectivity ratio hD2short: 360
[8]; [10]
  Ki: 0.19 µM
[8]; vs p5-HT1a
  selectivity ratio hD3: 260
Human 5-HT1a receptor; in words
  agonist activity at the human 5-HT1a receptor: full agonist activity
Human 5-HT1a receptor; mean values of 2-8 individual experiments
  EC50: 0.00065 to 0.0019 µM and 0.0019 µM
Human 5-HT1a receptor; read-out: intrinsic activity [% rel. to serotonin]
  Emax: 103%
[9]
  Ki: 0.068 µM
